Where two headings read alike, the source gives them in different places.
Assays:
[1] = Pharmacological effect and tolerability of glycine on administration; details: in vivo
[2] = system: NMDA receptors (N-methyl-D-aspartate receptors); details: opening of the ion channel induced by glutamate
[3] = very low application dosage

effect on the excitatory NMDA receptors [2]: shows an effect as a co-transmitter
uptake into the central nervous system ([3]; application via the mucous membranes, avoiding the first-pass effect): very fast uptake
uptake into the central nervous system [3]: very quick uptake
SMILES: NCC(=O)O [Glycine]
negative effects with other applications of drugs [1]: No negative effects
time until the preparation acts [1]: 5 to 10 min
undesired side-effects [1]: have not been proven
undesired side-effects ([1]; listed as glycine): No undesired side-effects have been established
